Source: patent US20090325936A1, “IMIDAZOPYRIDINE ANALOGS AS CB2 RECEPTOR MODULATORS, USEFUL IN THE TREATMENT OF PAIN, RESPIRATORY AND NON-RESPIRATORY DISEASES” (priority 2006, published 2009)
pEC50: −log10 of the molar value. Read-outs that look alike come from different tables or passages of the source.

How the values were obtained:
[1] = molecular target: human CB2 (Homo sapiens, UniProt P34972); experiment: Cyclic AMP assay (HTRF), CHO cells expressing human CB2; assay type: cell-based; settings: for Emax: CHO, read-out: CB2 Emax
Chain of human CB2 (P34972 whole entry): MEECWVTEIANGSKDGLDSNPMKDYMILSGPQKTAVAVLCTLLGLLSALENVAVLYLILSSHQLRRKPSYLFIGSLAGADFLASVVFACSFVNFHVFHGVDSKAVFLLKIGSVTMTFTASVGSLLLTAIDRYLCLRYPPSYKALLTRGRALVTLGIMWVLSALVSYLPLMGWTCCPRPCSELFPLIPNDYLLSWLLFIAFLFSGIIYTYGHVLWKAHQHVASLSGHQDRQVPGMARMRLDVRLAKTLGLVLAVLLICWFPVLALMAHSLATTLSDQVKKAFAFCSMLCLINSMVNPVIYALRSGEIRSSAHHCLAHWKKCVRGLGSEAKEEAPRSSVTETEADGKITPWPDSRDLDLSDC
Experimental: (§1) Chinese Hamster Ovary cells (CHO) expressing human CB1 or human CB2 (3.3×10^5 cells/ml) were preincubated for 15 min at room temperature with tested agonist and 3-isobutyl-1-methylxanthine (IBMX; 200 μM) in phosphate buffered saline containing 1 mg/ml BSA (assay buffer) followed by 30 min incubation with forskolin in a total volume of 10 μl. The optimal forskolin concentration for each cell line was established in a separate experiment and adjusted to stimulate 70% of maximal cAMP response. cAMP content was measured using an HTRF assay (CisBio) according to the manufacturer's two step protocol.

[2] = molecular target: human CB1 (Homo sapiens, UniProt P21554); experiment: Cyclic AMP assay (HTRF), CHO cells expressing human CB1; assay type: cell-based
Chain of human CB1 (P21554 whole entry): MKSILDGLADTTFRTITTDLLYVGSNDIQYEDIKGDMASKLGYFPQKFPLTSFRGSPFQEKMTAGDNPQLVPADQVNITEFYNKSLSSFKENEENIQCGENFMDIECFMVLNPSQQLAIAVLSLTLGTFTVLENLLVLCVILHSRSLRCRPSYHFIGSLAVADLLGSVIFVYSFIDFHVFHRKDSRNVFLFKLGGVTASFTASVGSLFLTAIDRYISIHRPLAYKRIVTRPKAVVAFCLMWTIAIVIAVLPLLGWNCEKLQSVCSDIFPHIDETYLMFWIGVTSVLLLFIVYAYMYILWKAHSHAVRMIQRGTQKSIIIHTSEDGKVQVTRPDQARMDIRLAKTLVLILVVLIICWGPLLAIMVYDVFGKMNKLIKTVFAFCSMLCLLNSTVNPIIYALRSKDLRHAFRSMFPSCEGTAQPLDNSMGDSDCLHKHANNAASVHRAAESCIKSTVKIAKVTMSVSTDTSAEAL
Experimental: as §1

[3] = agonist, forskolin-stimulated cAMP in CHO cells expressing human CB2, text calls the value IP, read-out: CB2 cAMP

| Structure (SMILES) | pEC50 [1] | Emax [1] | pEC50 [2] | pEC50 [1, 3] |
| --- | --- | --- | --- | --- |
| O=C(Nc1cccc2cnccc12)c1nc(C(=O)N2CCC(F)CC2)n2ccccc12 | 7.63 | 79.5% | 5.67 |  |
| O=C(NC12CC3CC(CC(C3)C1)C2)c1nc(C(O)c2cccnc2)n2ccccc12 (stereo not drawn) | 7.34 | 80.8% | < 4.77 |  |
| O=C(c1cccc(Cl)c1)c1nc(-c2ccc(F)cc2)n2ccccc12 |  | 63.7% | < 4.77 | 6.75 |
| O=C(NC12CC3CC(CC(C3)C1)C2)c1nc(Oc2cccc(F)c2)n2ccccc12 | 8.72 | 91.5% | 6.85 |  |
| CC(NC(=O)c1nc(N2CCOCC2)n2ccccc12)C(C)(C)C (stereo not drawn) | 8.28 | 99.5% | < 4.77 |  |
| O=C(NC12CC3CC(CC(C3)C1)C2)c1nc(C2CCCN2)n2ccccc12 (stereo not drawn) | 8.23 | 87.1% | 6.07 |  |
| O=C(NC1(c2ccccc2)CC1)c1nc(-c2cccc(F)c2)n2ccccc12 | 7.21 | 69.8% | 6.26 |  |
| CC(NC(=O)c1nc(Cl)c2ccccn12)c1ccccc1Cl (stereo not drawn) | 7.73 | 83.8% | < 4.77 |  |
| O=C(NC(C1CC1)C1CC1)c1nc(-c2ccc(F)cc2)c2ccccn12 | 8.70 | 96.4% | 6.39 |  |
| O=C(Nc1ccccc1Cl)c1nc(CN2CCC(O)C2)c2ccccn12 (stereo not drawn) |  | 69.9% | < 4.77 | 6.58 |
| O=C(c1ccc2ccccc2c1)c1nc(CN2CCOCC2)c2ccccn12 | 8.64 | 76.7% | 6.06 |  |
| O=C(NCC1CCOCC1)c1nc(-c2cccnc2)n2ccccc12 |  | 74.7% | < 4.77 | 5.19 |
